Measurements as given in ChEMBL document CHEMBL3813687, “A combined ligand- and structure-based approach for the identification of rilmenidine-derived compounds which synergize the antitumor effects of doxorubicin” (Bioorg Med Chem, 2016).
The source made the active and inactive calls. The calls are words filed in the database; no cut-off is given here.

Assays:
[1] = tested on: K562; test: Cell cycle arrest in human K562 cells assessed as accumulation at S phase at 70 uM after 48 hrs by propidium iodide staining based flow cytometry (reference value: 29%); assay type: functional
[2] = tested on: K562; test: Potentiation of 1.4 uM doxorubicin-induced cytotoxicity in human K562 cells assessed as combination index at 100 uM after 48 hrs by MTT assay relative to control; assay type: functional
[3] = tested on: K562; test: Potentiation of 1 uM doxorubicin-induced cytotoxicity in human K562 cells assessed as inhibition of cell survival at 70 uM after 48 hrs by MTT assay relative to control; assay type: functional
[4] = tested on: K562; test: Potentiation of 1.4 uM doxorubicin-induced cytotoxicity in human K562 cells assessed as inhibition of cell survival at 100 uM after 48 hrs by MTT assay relative to control; assay type: functional
[5] = molecular target: Proto-oncogene tyrosine-protein kinase Src (Homo sapiens) (UniProt P12931); test: Inhibition of recombinant human N-terminal poly His/GST-tagged SRC expressed in baculovirus infected insect cells using KVEKIGEGTYGVVYK peptide substrate assessed as residual activity at 100 uM in presence of NP40 by [gamma32P]ATP filter binding assay relative to control
[6] = tested on: K562; test: Potentiation of doxorubicin-mediated cell cycle arrest in human K562 cells assessed as decrease in G2/M cell population after 48 hrs by propidium iodide staining based flow cytometry; assay type: functional
[7] = tested on: K562; test: Inhibition of colony formation in human K562 cells after 24 hrs by clonogenic assay; assay type: functional, cell-based
[8] = molecular target: Tyrosine-protein kinase ABL1 (Homo sapiens) (UniProt P00519); test: Inhibition of recombinant human N-terminal His-tagged ABL expressed in baculovirus infected sf9 cells using abtide as substrate assessed as residual activity at 100 uM by [gamma32P]ATP filter binding assay relative to control
[9] = tested on: K562; test: Induction of apoptosis in human K562 cells assessed as necrotic cells at 70 uM after 48 hrs by Annexin V-FITC/propidium iodide staining based flow cytometry (reference value: 1%); assay type: functional
[10] = tested on: K562; test: Potentiation of 1 uM doxorubicin-induced cytotoxicity in human K562 cells assessed as combination index at 70 uM after 48 hrs by MTT assay relative to control; assay type: functional
[11] = tested on: K562; test: Cell cycle arrest in human K562 cells assessed as accumulation at sub-G1 phase at 70 uM after 48 hrs by propidium iodide staining based flow cytometry (reference value: 3%); assay type: functional
[12] = tested on: K562; test: Antiproliferative activity against human K562 cells at 70 uM after 24 hrs by clonogenic assay relative to control; assay type: functional; conditions: K562, 24 h, read-out: GI
[13] = tested on: K562; test: Potentiation of doxorubicin-induced apoptosis in human K562 cells assessed as necrotic cells at 70 uM after 48 hrs by Annexin V-FITC/propidium iodide staining based flow cytometry (reference value: 1%); assay type: functional
[14] = tested on: K562; test: Potentiation of 0.36 uM doxorubicin-induced cytotoxicity in human K562 cells assessed as combination index at 25 uM after 48 hrs by MTT assay relative to control; assay type: functional
[15] = molecular target: Proto-oncogene tyrosine-protein kinase Src (Homo sapiens) (UniProt P12931); test: Inhibition of recombinant human N-terminal poly His/GST-tagged SRC expressed in baculovirus infected insect cells using KVEKIGEGTYGVVYK peptide substrate assessed as residual activity at 100 uM by [gamma32P]ATP filter binding assay relative to control
[16] = tested on: K562; test: Potentiation of doxorubicin-induced apoptosis in human K562 cells assessed as late apoptotic cells at 70 uM after 48 hrs by Annexin V-FITC/propidium iodide staining based flow cytometry (reference value: 1%); assay type: functional
[17] = molecular target: T1, Alpha-2A adrenergic receptor (Homo sapiens, UniProt P08913); test: Intrinsic activity at recombinant human alpha2A adrenoreceptor expressed in CHOK1 cell membrane incubated for 30 mins by [35S]GTPgammaS binding assay relative to adrenaline; assay type: cell membranes; conditions: CHO-K1, human, 0.5 h; read-out: Intrinsic activity
T1 sequence (P08913 whole entry): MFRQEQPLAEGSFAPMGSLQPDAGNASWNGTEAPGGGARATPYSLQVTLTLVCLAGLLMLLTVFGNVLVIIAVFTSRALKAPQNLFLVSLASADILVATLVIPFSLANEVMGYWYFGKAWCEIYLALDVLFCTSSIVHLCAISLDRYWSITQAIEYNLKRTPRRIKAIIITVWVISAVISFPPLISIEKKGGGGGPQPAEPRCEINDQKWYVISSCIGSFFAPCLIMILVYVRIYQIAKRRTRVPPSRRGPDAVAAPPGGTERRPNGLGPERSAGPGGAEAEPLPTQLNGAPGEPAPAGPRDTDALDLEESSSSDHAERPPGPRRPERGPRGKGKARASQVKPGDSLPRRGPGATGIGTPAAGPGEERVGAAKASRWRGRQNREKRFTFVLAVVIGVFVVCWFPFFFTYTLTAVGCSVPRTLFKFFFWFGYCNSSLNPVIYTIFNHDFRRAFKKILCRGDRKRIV

[18] = tested on: K562; test: Induction of apoptosis in human K562 cells assessed as late apoptotic cells at 70 uM after 48 hrs by Annexin V-FITC/propidium iodide staining based flow cytometry (reference value: 1%); assay type: functional
[19] = tested on: K562; test: Antiproliferative activity against human K562 cells assessed as inhibition of cell survival after 48 hrs by MTT assay; assay type: functional, cell-based; conditions: K562, 48 h
[20] = tested on: K562; test: Cell cycle arrest in human K562 cells assessed as accumulation at G0/G1 phase at 70 uM after 48 hrs by propidium iodide staining based flow cytometry (reference value: 42%); assay type: functional
[21] = tested on: K562; test: Potentiation of doxorubicin-induced apoptosis in human K562 cells assessed as early apoptotic cells at 70 uM after 48 hrs by Annexin V-FITC/propidium iodide staining based flow cytometry (reference value: 5%); assay type: functional
[22] = molecular target: Tyrosine-protein kinase ABL1 (Homo sapiens) (UniProt P00519); test: Inhibition of recombinant human N-terminal His-tagged ABL expressed in baculovirus infected sf9 cells using abtide as substrate assessed as residual activity at 100 uM in presence of NP40 by [gamma32P]ATP filter binding assay relative to control
[23] = tested on: K562; test: Potentiation of 0.7 uM doxorubicin-induced cytotoxicity in human K562 cells assessed as combination index at 50 uM after 48 hrs by MTT assay relative to control; assay type: functional
[24] = tested on: K562; test: Potentiation of doxorubicin-mediated cell cycle arrest in human K562 cells assessed as increase in sub-G1 cell population after 48 hrs by propidium iodide staining based flow cytometry; assay type: functional
[25] = tested on: K562; test: Induction of apoptosis in human K562 cells assessed as early apoptotic cells at 70 uM after 48 hrs by Annexin V-FITC/propidium iodide staining based flow cytometry (reference value: 5%); assay type: functional
[26] = tested on: K562; test: Cell cycle arrest in human K562 cells assessed as accumulation at G2/M phase at 70 uM after 48 hrs by propidium iodide staining based flow cytometry (reference value: 26%); assay type: functional
[27] = tested on: K562; test: Potentiation of 0.36 uM doxorubicin-induced cytotoxicity in human K562 cells assessed as inhibition of cell survival at 25 uM after 48 hrs by MTT assay relative to control; assay type: functional
[28] = tested on: K562; test: Potentiation of 0.7 uM doxorubicin-induced cytotoxicity in human K562 cells assessed as inhibition of cell survival at 50 uM after 48 hrs by MTT assay relative to control; assay type: functional
[29] = molecular target: T1, Alpha-2A adrenergic receptor; test: Displacement of [3H]RS-79948-197 from recombinant human alpha2A adrenoreceptor expressed in CHOK1 cell membrane by scintillation counting method; assay type: cell membranes, CHO-K1; conditions: read-out: Ki(app)

Chain of Proto-oncogene tyrosine-protein kinase Src (Homo sapiens) (P12931 2-536 limits assumed): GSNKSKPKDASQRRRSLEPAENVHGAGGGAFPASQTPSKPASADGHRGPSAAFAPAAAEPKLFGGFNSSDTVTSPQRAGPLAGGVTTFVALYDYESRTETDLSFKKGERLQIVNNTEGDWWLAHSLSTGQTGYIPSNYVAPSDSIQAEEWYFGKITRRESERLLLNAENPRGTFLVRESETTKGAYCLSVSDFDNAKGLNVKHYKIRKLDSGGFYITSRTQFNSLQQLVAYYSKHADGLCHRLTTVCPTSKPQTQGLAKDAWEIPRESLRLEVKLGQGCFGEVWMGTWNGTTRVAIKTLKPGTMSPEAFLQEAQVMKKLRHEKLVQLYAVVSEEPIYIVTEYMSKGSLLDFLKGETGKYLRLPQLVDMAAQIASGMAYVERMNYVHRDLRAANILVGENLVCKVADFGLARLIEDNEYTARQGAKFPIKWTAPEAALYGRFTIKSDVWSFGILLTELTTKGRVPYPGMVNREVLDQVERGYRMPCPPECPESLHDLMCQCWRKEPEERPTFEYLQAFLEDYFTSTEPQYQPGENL
Chain of Tyrosine-protein kinase ABL1 (Homo sapiens) (P00519 whole entry): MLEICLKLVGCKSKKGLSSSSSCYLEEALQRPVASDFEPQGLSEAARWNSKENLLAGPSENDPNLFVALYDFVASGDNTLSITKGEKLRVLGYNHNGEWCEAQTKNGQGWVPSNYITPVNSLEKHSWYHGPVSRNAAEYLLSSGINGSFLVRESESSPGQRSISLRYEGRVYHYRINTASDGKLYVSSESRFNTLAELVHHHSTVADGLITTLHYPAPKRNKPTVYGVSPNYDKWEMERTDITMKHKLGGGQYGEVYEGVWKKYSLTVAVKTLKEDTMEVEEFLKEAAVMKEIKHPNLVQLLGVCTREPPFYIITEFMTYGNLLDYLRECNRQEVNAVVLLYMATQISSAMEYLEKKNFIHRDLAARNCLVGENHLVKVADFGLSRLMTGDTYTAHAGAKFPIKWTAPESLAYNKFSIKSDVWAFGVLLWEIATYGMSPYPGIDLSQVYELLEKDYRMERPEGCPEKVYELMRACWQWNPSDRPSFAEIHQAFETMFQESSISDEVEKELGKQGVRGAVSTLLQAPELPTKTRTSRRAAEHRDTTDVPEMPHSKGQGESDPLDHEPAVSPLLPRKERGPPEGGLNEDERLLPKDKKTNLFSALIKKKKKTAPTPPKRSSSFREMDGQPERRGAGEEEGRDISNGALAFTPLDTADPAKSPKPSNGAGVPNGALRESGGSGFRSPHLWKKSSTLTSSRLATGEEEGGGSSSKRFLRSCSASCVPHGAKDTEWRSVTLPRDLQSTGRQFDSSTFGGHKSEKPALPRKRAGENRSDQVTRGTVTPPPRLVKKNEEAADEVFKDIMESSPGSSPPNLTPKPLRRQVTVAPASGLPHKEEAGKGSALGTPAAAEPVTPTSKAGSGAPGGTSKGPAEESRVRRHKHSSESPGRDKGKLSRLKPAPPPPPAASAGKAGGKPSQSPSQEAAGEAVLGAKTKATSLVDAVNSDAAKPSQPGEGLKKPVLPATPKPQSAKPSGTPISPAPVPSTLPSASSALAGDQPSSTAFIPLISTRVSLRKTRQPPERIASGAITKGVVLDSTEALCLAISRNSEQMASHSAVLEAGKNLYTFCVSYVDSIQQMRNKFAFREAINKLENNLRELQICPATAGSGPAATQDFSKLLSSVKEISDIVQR

Q: How did the Activity [1] turn out when CN1CCCCC1CCn1c2ccccc2c2ccccc21 (centres undefined) was run?
A: The Activity was 16%.

Q: What about the Ratio [2] of the same compound?
A: Its Ratio is 0.688.

Q: What about the “inhibition (INH)” value [3] of the same compound?
A: Its value is 72.21%.

Q: And the “inhibition (INH)” value [4]?
A: The value was 78.21%.

Q: What about the Activity [5] of the same compound?
A: Its Activity is 96%.

Q: What about the Activity [6] of the same compound?
A: The Activity was “Active”.

Q: What about the inhibition [7] of the same compound?
A: The inhibition was “Dose-dependent effect”.

Q: What about the Activity [8] of the same compound?
A: The Activity was 94%.

Q: And the Activity [9]?
A: Its Activity is 9%.

Q: And the Ratio [10]?
A: Its Ratio is 0.617.

Q: And the Activity [11]?
A: Its Activity is 44%.

Q: And the inhibition of growth at 70 µM [12]?
A: Its inhibition of growth at 70 µM is 88%.

Q: What about the Activity [13] of the same compound?
A: Its Activity is 1%.

Q: And the Ratio [14]?
A: Its Ratio is 0.877.

Q: What about the Activity [15] of the same compound?
A: Its Activity is 100%.

Q: What about the Activity [16] of the same compound?
A: Its Activity is 2%.

Q: And the Emax [17]?
A: Its Emax is -3%.

Q: And the Activity [18]?
A: The Activity was 13%.

Q: What about the IC50 [19] of the same compound?
A: Its IC50 is 70 µM.

Q: And the Activity [20]?
A: Its Activity is 30%.

Q: And the Activity [21]?
A: Its Activity is 64%.

Q: And the Activity [22]?
A: Its Activity is 100%.

Q: And the Ratio [23]?
A: The Ratio was 0.511.

Q: And the Activity [24]?
A: Its Activity is “Active”.

Q: And the Activity [25]?
A: The Activity was 40%.

Q: And the Activity [26]?
A: The Activity was 10%.

Q: What about the “inhibition (INH)” value [27] of the same compound?
A: The value was 45.75%.

Q: What about the “inhibition (INH)” value [28] of the same compound?
A: Its value is 68.62%.

Q: What about the Ki [29] of the same compound?
A: Its Ki is 1.2 µM.
